Experiments:
[1] = tested on: Langerhans cells (LC) and dendritic cells (DC) in mice; experiment: Migration of dendritic cells from ear skin to draining ganglions in mice sensitized by FITC hapten; assay type: in vivo; details: for Migration inhibition in %: FITC hapten; for migration of DCs to LGs (in words): OX100 alone, mice sensitized by FITC hapten
Excerpt: FITC (Fluoresceine isothiocyanate, Sigma, St Louis, Mo.) was extemporaneously diluted in an acetone mix (dibutylphthalate (1:1)).
Oxazoline OX100 and LU105 (LU 105 is an MMP inhibitor, corresponding to a peptide extract of white lupin marketed by the Expanscience Company under the brand name Actimp 193®) were supplied by “Laboratoires Expanscience” and formulated alone or association with each other in an inert vehicle compatible with a topical application (oxazoline OX100 (0.1%) LU105 (2%)). The different formulations were applied on the ears of mice twice per day for 4 consecutive days. 1.5% of FITC was applied on both ears (one treated and the other not treated (Control)) three hours after the last application.
The effect of the two molecules was evaluated in vivo in mice. 1.5% FITC (2×5 μl) was applied on the skin of both ears. 24 h later, the mice were sacrificed and a cellular suspension was prepared from auricular and cervical ganglions (draining ganglions, hereinafter denoted GL) or from the poplital ganglions (non-draining ganglions, negative control). The tissues were cut and cells separated by filtration (100 μm filter, Falcon; Becton Dickinson) and then washed. The cells were then centrifuged for 10 minutes at 600×g (m×s^−2) on a metrizamide gradient (14.5% in RPMI 1640; 7.5% SVF). The interface cells were retrieved, rinsed and then marked with an anti-CDS86 PE-conjugated, biot-MHC CLII mAbs AC plus streptavidine-Cya (PharMingen) and analyzed by flux cytometry. Only the FITC^+, PE^+ and Cya^+ cells are counted since they represent the population of cells that migrated from the skin to GLs following the application of hapten.
FITC (Fluoresceine isothiocyanate, Sigma, St. Louis, Mo.) was diluted extemporaneously in a mixture of acetone and dibutylphthalate (1:1).
Oxazoline OX100 and AK100 (described above) were supplied by “Laboratoires Expanscience” and formulated alone or in association in an inert vehicle compatible with a topical application [OX100 (0.05%) AK100 (0.05%)]. The different formulations were applied on the ears of mice twice per day for 4 consecutive days. Three hours after the last application, 1.5% of FITC was applied on both ears (one treated and the other not treated (Control)).

[2] = tested on: Langerhans cells freshly isolated from human skin; experiment: Migration of Langerhans cells freshly isolated from human skin, sensitized by DNSB, two-compartment Matrigel chamber; assay type: cell-based
Experimental: Epidermal cell suspensions were obtained by enzymatic treatment (0.05% trypsine for 18 h at +4° C.) of fragments of normal human skin taken from plastic surgery. The suspensions obtained contain an average of 2 to 4% of LC. Obtaining suspensions containing an average of 70% of LC is based on the principle of centrifuging on density gradient (Lymphoprep™) and elimination of keratinocytes.
The basic medium chosen for the entire study was PRMI 1640 (Gibco BRL, France). The OX100 molecule supplied by Pharmascience, with a concentration of 10^−2 M in solution in DMSO (Dimethyl Sulfoxide) was diluted in RPMI-1640 and tested at 1 μM.
The sensitizing agent was DNSB (Sigma Aldrich), a soluble form of DNCB (dinitro-chloro-benzene) solubilized in RPMI-BSA and used at a concentration of 50 μM.
A culture chamber system with two compartments (Falcon, Becton Dickinson, France) was used. The upper compartment is separated from the lower compartment by a membrane with 8 μm porosity, on which 50 μg/cm^2 Matrigel was deposited. […] After 18 h incubation at 37° C., the number of living cells that passed through the Matrigel and that are located in the lower compartment is counted under a microscope (the LCs are easily identifiable by their dendritic form). […]

[3] = tested on: dendritic cells generated in vitro from CD34+ precursors derived from blood from the umbilical cord; experiment: Migration of dendritic cells generated in vitro from CD34+ precursors of umbilical cord blood, activated by hapten BB; assay type: cell-based; details: for inhibition at 1 µM: Dendritic cell, hapten BB; for Percentage of dendritic cells generated in vitro that migrated: BB + OX100 (1 μM)
Experimental: Mononucleated cells were obtained from blood from the umbilical cord of healthy donors by centrifuging on Ficoll. The CD34+ cells were then purified by immunoselection using a specific antibody and magnetic balls (Miltenyi Biotech, Germany). The CD34+ cells were cultivated in the presence of GM-CSF (100 ng/ml), TNF-α (2.5 ng/ml) in RPMI to which 10% calf fetus serum was added for 5 days. TGF-β1, a factor that encourages differentiation of cells to the Langerhans cells […], was added on the 5th day of culture.
Preparation of Media (Ditto Example 2).
Cells were treated by hapten BB on the 7th day (Brandowski base, 1.17 μg/ml) for 24 h, and were then subjected to the migration test.
Migration of LCs (Ditto Example 2).

SMILES | Migration inhibition in % ([1]; Example 5, AK100 0.05% topical on ears twice per day for 4 days) | migration of LCs induced by DNSB (in words) ([2]; 1 μM) | LC migration index ([2]; DNSB + OX100 (1 μM), 18 h, control cells set to 1, DNSB alone 2.55) | migration of dendritic cells generated in vitro and activated by hapten BB (in words) ([3]; 1 μM) | inhibition at 1 µM ([3]; experiment 1, 1 μM) | inhibition at 1 µM ([3]; experiment 2, 1 μM) | Percentage of dendritic cells generated in vitro that migrated ([3]; Experiment 1, BB alone 17) | Percentage of dendritic cells generated in vitro that migrated ([3]; Experiment 2, BB alone 24) | Migration inhibition in % ([1]; Example 4, OX100 0.1% topical on ears twice per day for 4 days) | migration of DCs to LGs (in words) ([1]; Example 4) | Migration inhibition in % ([1]; Example 5, OX100 0.05% topical on ears twice per day for 4 days) | migration of DCs to LGs (in words) ([1]; Example 5)
CCCCCCCCCCCC(=O)NC(C)(C)CO [AK100] | 15% | – | – | – | – | – | – | – | – | – | – | –
CCCCCCCCCCCC1=NC(C)(C)CO1 [OX100, 2-undecyl-4,4-dimethyl-1,3-oxazoline] | – | significantly inhibits | 0.98 | significantly inhibits | 29% | 15% | 12% | 20.3% | 30% | significantly inhibits | 15% | significantly inhibits
